Measured values as given in paper PMC12154549, “Structure-based design of an aromatic helical foldamer–protein interface” (Chemical Science, 2025).
Like-named read-outs stand apart in the source and are kept apart here.

How the values were obtained:
HCAII [1] = target: T1, HCAII (Homo sapiens, UniProt P00918); set-up: method as in PMID 30395443; settings: HCAII immobilized; 2:98 DMSO/PBS pH 7.4, 25 °C; ref 8a; read-out: KD by SPR; cited from earlier work
T1 construct: made in house

HCAII [2] = target: T1, HCAII; experiment: Fluorescence competition assay: HCAII titrated into foldamer or ligand plus probe 23; settings: [competing species] = [23] = 50 nM; 50 mM HEPES pH 7.2; 1:1 binding isotherm, 380-600 nm; repeatable within ±15%
From the text: We turned to a recently published assay that exploits the quenching of the fluorescence of nanomolar ligand 23 upon binding to HCAII (Fig. 8a).[32] The low KD value of 23 makes it suitable to perform competition (displacement) assays with compounds binding in the same concentration range. However, some optimization of the assay was required to perform experiments with foldamer-containing ligands because the foldamers absorb both at the excitation (373 nm) and emission (400–450 nm) wavelengths of 23. Performing classical direct displacement titrations where a foldamer is added to a solution containing 23 and HCAII would be complicated by variable inner filter effects. […] For fluorescence measurements: 50 mM HEPES (4-(2-hydroxyethyl)-1-piperazineethanesulfonic acid) at pH 7.2. […] It appears that the fluorescence drops upon adding HCAII, i.e. that ligand 23 binds to HCAII, in presence of the foldamer faster than predicted by the binding model. A better fit can be artificially obtained by inputting HCAII concentrations 20% larger than those measured or foldamer concentrations 20% lower than those measured in the curve fitting program. […]
4.2 Fluorescence binding assay […]
2. To the solution of 23 (50 nM) in HEPES buffer (50 mM, pH 7.2) in the fluorescence cuvette (2 mL), incremental volumes of a stock solution of HCAII (11 µM) in HEPES buffer were added. […]

HCAII [3] = target: T1, HCAII; experiment: Direct fluorescence titration of probe 23 with HCAII; format: binding; settings: 23 50 nM, 50 mM HEPES pH 7.2, RT, 1:1 model; read-out: KD of 23·HCAII complex
Procedure: 4.2 Fluorescence binding assay
This fluorescence assay was adapted from the paper of Anzenbacher.18 All fluorescence titrations were done in aqueous 50 mM HEPES buffer (pH = 7.2) at room temperature , without degassing of the samples and using a qua rtz fluorescence cuvette with 1 cm path length on Varian Cary Eclipse Spectrophotometer 05813. The titration assays were carried out in two parts: 1) sensor - protein titration (Figure S21); 2) sensor-foldamer competition assay (Figure S24). Several experiments were repeated and validated a reproducibility within 15% error.
Figure S21. Schematic procedure of the titration experiment between indicator 23 and HCAII (adapted from literature18).
4.2.1 KD measurement of the 23•HCAII complex
1. […]
2. To the solution of 23 (50 nM) in HEPES buffer (50 mM, pH 7.2) in the fluorescence cuvette (2 mL), incremental volumes of a stock solution of HCAII (11 µM) in HEPES buffer were added.
After each addition and gentle agitation, the resulting mixture was incubated for 5 min at RT. The intensity of fluorescence (IF) was then recorded from 380 nm to 600 nm (λex = 373 nm).   […]
software.19 For curve fitting, the binding model was set to 1:1. The spectra of all emitting species were recorded from 380 nm to 600 nm (λex = 373 nm) in separate experiments and set as “unknown spectrum”. The KD value was determined considering all the wavelengths recorded. […]

Row | SMILES | Kd (HCAII [1]) | Kd (HCAII [2]) | Kd (HCAII [3])
1 | NCCCCOc1cccc(CNC(=O)c2ccc(S(N)(=O)=O)cc2)c1 [ligand 22] | 5 nM | 10 nM | 
2 | COc1ccc2cc(C(=O)Nc3nnc(S(N)(=O)=O)s3)c(=O)oc2c1 [probe 23] |  |  | 1.69 nM
